Experimental data reported in ChEMBL document CHEMBL1152578, “Inhibition of ribonuclease A by nucleoside-dibasic acid conjugates” (Bioorg Med Chem, 2009).
Activity calls are given as the source filed them. No cut-off for these calls is given here.

Assays:
[1] = target: T1, Ribonuclease pancreatic (Homo sapiens) (UniProt P07998); assay: Inhibition of RNase A assessed as degradation of tRNA by agarose gel assay
T1 sequence (whole entry): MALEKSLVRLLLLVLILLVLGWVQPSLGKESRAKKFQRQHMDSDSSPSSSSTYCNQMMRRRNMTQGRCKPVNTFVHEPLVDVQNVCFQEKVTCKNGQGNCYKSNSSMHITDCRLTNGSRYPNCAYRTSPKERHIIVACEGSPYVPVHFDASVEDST

[2] = target: T1, Ribonuclease pancreatic (Homo sapiens); assay: Inhibition of RNase A at 1.5 mM by precipitation assay
Ribonuclease pancreatic = target: T2, Ribonuclease pancreatic (Homo sapiens, UniProt P07998); assay: Inhibition of RNase A using dixon plot by spectrophotometric method
T2 sequence (P07998 whole entry): T1 sequence (whole entry)

Activity [1]	inhibition [2]	Ki (Ribonuclease pancreatic) [µM]	Compound
Active	Active	132	Cc1cn([C@H]2C[C@H](NC(=O)C(=O)O)[C@@H](CO)O2)c(=O)[nH]c1=O
–	–	380	Cc1cn([C@H]2C[C@H](NC(=O)CC(=O)O)[C@@H](CO)O2)c(=O)[nH]c1=O
–	–	918	Cc1cn([C@H]2C[C@H](NC(=O)CCC(=O)O)[C@@H](CO)O2)c(=O)[nH]c1=O
